Experimental data reported in patent US11974983B2 (Duke University, priority 2018, dated 2024).

Key:
MCF7 WT [1] = assay: MIND xenograft model, combination therapies, MCF7 WT; format: in vivo, mice
From the text: MCF7 WT and MCF7 Y537S MIND xenograft model were generated as described in Example 3. […] FIG. 20 summarizes the experimental design.

MCF7 WT [2] = assay: Mammary intraductal (MIND) xenograft model, MCF7 WT; format: in vivo, NSG mice; conditions: MCF7 WT mice; fulvestrant 5 mg once per week subcutaneous
Procedure: (§1) MCF7 cells were engineered with CRISPR/Cas9 to express ERα with Y537S and D538G mutations. To mimic the natural environment of infiltrating ductal ERα^+ breast cancers, NSG™ mice were injected, via the nipple in the inguinal mammary glands, with three MCF7 cell variants: wild type MCF7 cells (MCF7 WT), MCF7 cells expressing Y537S mutant ERα (MCF7 Y537S), and MCF7 cells expressing D538G mutant ERα (MCF7 D538G), respectively. Prior to injection, the MCF7 cells were labeled with a luciferase reporter to monitor tumor growth in vivo using a Xenogen IVIS imager. […] FIG. 4 summarizes the experimental design.

MCF7 Y537S = assay: Mammary intraductal (MIND) xenograft model, MCF7 Y537S; format: in vivo, NSG mice; conditions: MCF7 Y537S; fulvestrant 5 mg once per week; after 70 days
Procedure: as §1

[3] = tested on: wild-type ERα and ERα LBD mutants Y537S, Y537N, Y537C, D538G; assay: ERE-luciferase reporter assay in Caov2 and SKBR3 cells (statements on all receptors); format: cell-based
Procedure: ExSite mutagenesis was performed using the corresponding primers as summarized in Table 1 below on a pENTR2B ERα WT construct using Pfu ultra taq polymerase. The primers were PNK phosphorylated. Following PCR amplification, the products were digested with DpnI at 37° C. for 1 hr, followed by overnight ligation at 16° C. Ligated products were transformed into DH5α bacterial cells and grown on kanamycin resistant plates. The pENTR clones were verified by sequencing and then swapped into the pcDNA-DEST vector using the Gateway system (Invitrogen) for expression analysis.
Caov2 ovarian carcinoma cells were grown in RPMI-1640 media (Gibco) supplemented with 8% Fetal Bovine Serum (FBS), Sodium Pyruvate (NaPyr) and non-essential amino acids (NEAA) and passaged every 2-3 days. SKBR3 breast adenocarcinoma cells were grown in DMEM media (Gibco) supplemented with 8% Fetal Bovine Serum (FBS), Sodium Pyruvate (NaPyr) and non-essential amino acids (NEAA) and passaged every 2-3 days. […]
Caov2 cells were co-transfected with the 7X-TK-ERE-TATA luciferase reporter gene (Nagel et al., Endocrinology 142(11): 4721-4728 (2001)) and expression constructs for either wild-type or mutant receptors using Fugene transfection reagent (Promega). […] Following 24 hours of treatment, cells were lysed and the luciferase and β-gal assays were performed as described previously (Norris et al., J Biol Chem 270(39): 22777-22782 (1995)) and the plates were read on the Fusion α-FP HT plate reader (PerkinElmer Life Sciences).
See Jeselsohn et al., Nature Reviews Clinical Oncology 12(10): 573-583 (2015); Jeselsohn et al., Clinical Cancer Research 20(7): 1757-1767 (2014); Robinson et al., Nature Genetics 45(12): 1446-1451(2013); Thomas and Gustafsson, Trends in Endocrinology and Metabolism 26(9): 467-476 (2015); and Toy et al., Nature Genetics 45(12): 1439-1445 (2013). The activity of these mutants was evaluated in a reconstituted estrogen response element (ERE)-luciferase reporter assay in Caov2 ovarian carcinoma cells and SKBR3 breast adenocarcinoma cells. […]

| SMILES | tumor growth monitored by total flux (MCF7 WT [1]; MCF7 WT mice, fulvestrant alone 5 mg/mouse once per week) | tumor growth by tumor volume (MCF7 WT [1]; MCF7 WT, day 36 and day 43 of treatment) | tumor growth monitored by total flux (MCF7 WT [2]) | lung metastasis (MCF7 Y537S) | transcriptional activity, response to E2 [3] |
| --- | --- | --- | --- | --- | --- |
| C[C@]12CC[C@@H]3c4ccc(O)cc4C[C@@H](CCCCCCCCC[S+]([O-])CCCC(F)(F)C(F)(F)F)[C@H]3[C@@H]1CC[C@@H]2O (some centres unmarked) [fulvestrant] | the most effective in inhibiting tumor growth | the most effective | the most effective in inhibiting tumor growth | did not have a significant effect |  |
| C[C@]12CC[C@@H]3c4ccc(O)cc4CC[C@H]3[C@@H]1CC[C@@H]2O [E2, 17-β estradiol] |  |  |  |  | not responsive to E2 activation |
